From US12371421B2, “Solid forms of a PARP7 inhibitor” (Ribon Therapeutics, Inc., priority 2019, dated 2025)

What was measured:
Assay in all cases: Cancer cell growth inhibition (CellTiter-Glo)
Format in all cases: cell-based
NCI-H1437 = settings: Homo sapiens; NCI-H1437, lung adenocarcinoma; 144 hours
Procedure: (§1) Cells were plated into 384-well plates at a pre-specified density in fetal bovine serum-containing media. Cells were treated with compound or vehicle (DMSO) 24 hrs later, and a day zero plate was collected for analysis. Test compound plates were incubated continuously for 144 hours before cells and cell growth was assessed using a luminescent cell viability assay (CellTiter-Glo, Promega). The GI50 was determined by correcting for the cell count at time zero (time of treatment) and plotting data as percent growth relative to vehicle-treated cells.

ACC-MESO-1 = settings: ACC-MESO-1, mesothelioma; 144 hours
Procedure: as §1

SK-MES-1 = settings: Homo sapiens; SK-MES-1, squamous cell lung carcinoma; 144 hours
Procedure: as §1

NUGC-3 = settings: Homo sapiens; NUGC-3, gastric adenocarcinoma; 144 hours
Procedure: as §1

HPAF-II = settings: Homo sapiens, pancreatic adenocarcinoma, 144 hours
Procedure: as §1

TYK-nu = settings: high grade ovarian serious adenocarcinoma, 144 hours
Procedure: as §1

SK-MEL-2 = settings: Homo sapiens; SK-MEL-2, malignant melanoma; 144 hours
Procedure: as §1

A101D = settings: Homo sapiens, melanoma, 144 hours
Procedure: as §1

SK-LU-1 = settings: Homo sapiens; SK-LU-1, lung adenocarcinoma; 144 hours
Procedure: as §1

IA-LM = settings: large cell lung carcinoma, 144 hours
Procedure: as §1

SNU-840 = settings: SNU-840, malignant ovarian Brenner tumor; 144 hours
Procedure: as §1

EBC-1 = settings: Homo sapiens; EBC-1, squamous cell lung carcinoma; 144 hours
Procedure: as §1

Panc 03.27 = settings: Homo sapiens, PANC-03-27; Panc 03.27, pancreatic adenocarcinoma; 144 hours
Procedure: as §1

NCI-H441 = settings: Homo sapiens; NCI-H441, papillary adenocarcinoma of the lung; 144 hours
Procedure: as §1

YD-10B = settings: tongue squamous cell carcinoma, 144 hours
Procedure: as §1

TUHR10TKB = settings: renal cell carcinoma, 144 hours
Procedure: as §1

KMRC-3 = settings: KMRC-3, clear cell renal carcinoma; 144 hours
Procedure: as §1

MCAS = settings: ovarian mucinous cystadenocarcinoma, 144 hours
Procedure: as §1

NCI-H1930 = settings: Homo sapiens; NCI-H1930, small cell lung carcinoma; 144 hours
Procedure: as §1

NCI-H2291 = settings: Homo sapiens; NCI-H2291, lung adenocarcinoma; 144 hours
Procedure: as §1

NCI-H2347 = settings: Homo sapiens; NCI-H2347, lung adenocarcinoma; 144 hours
Procedure: as §1

T84 = settings: Homo sapiens; T84, colon adenocarcinoma; 144 hours
Procedure: as §1

SCaBER = settings: Homo sapiens, bladder squamous cell carcinoma, 144 hours
Procedure: as §1

NCI-H2444 = settings: Homo sapiens; NCI-H2444, non-small cell lung carcinoma; 144 hours
Procedure: as §1

MSTO-211H = settings: Homo sapiens, biphasic mesothelioma, 144 hours
Procedure: as §1

SMILES: C[C@@H](COCCC(=O)N1CCN(c2ncc(C(F)(F)F)cn2)CC1)Nc1cn[nH]c(=O)c1C(F)(F)F [Compound 1, 5-[[(2S)-1-(3-oxo-3-[4-[5-(trifluoromethyl)pyrimidin-2-yl]piperazin-1-yl]propoxy)propan-2-yl]amino]-4-(trifluoromethyl)-2,3-dihydropyridazin-3-one]
- GI50 (NCI-H1437): ≥ 1 µM
- GI50 (ACC-MESO-1): ≥ 1 µM
- GI50 (SK-MES-1): ≥ 1 µM
- GI50 (NUGC-3): ≥ 1 µM
- GI50 (HPAF-II): ≥ 1 µM
- GI50 (TYK-nu): < 0.1 µM
- GI50 (SK-MEL-2): ≥ 1 µM
- GI50 (A101D): ≥ 1 µM
- GI50 (SK-LU-1): ≥ 1 µM
- GI50 (IA-LM): < 0.1 µM
- GI50 (SNU-840): ≥ 1 µM
- GI50 (EBC-1): < 0.1 µM
- GI50 (Panc 03.27): < 0.1 µM
- GI50 (NCI-H441): ≥ 1 µM
- GI50 (YD-10B): ≥ 1 µM
- GI50 (TUHR10TKB): < 0.1 µM
- GI50 (KMRC-3): ≥ 1 µM
- GI50 (MCAS): ≥ 1 µM
- GI50 (NCI-H1930): ≥ 1 µM
- GI50 (NCI-H2291): ≥ 1 µM
- GI50 (NCI-H2347): < 0.1 µM
- GI50 (T84): ≥ 1 µM
- GI50 (SCaBER): ≥ 1 µM
- GI50 (NCI-H2444): ≥ 1 µM
- GI50 (MSTO-211H): ≥ 1 µM
